The results in this text go back to US8835415B2, “Standardized composition, method of manufacture and use in the resolution of RNA virus infection” (priority 2009, dated 2014).

This assay has as its system H1N1 virus, Resistant strain (6706). Kind of assay: microbe, parasite or virus in culture. Format: cell-based. The note with it: Influenza A virus, H1N1, MDCK.

Where only a bound is given, the exact number is not on record here.

Usually EC50 stands for the concentration needed to bring the measured effect to its halfway point. Read a high EC50 as lower potency in that assay. For `CCOC(=O)C1=C[C@@H](OC(CC)CC)[C@H](NC(C)=O)[C@@H](N)C1` [Tamiflu, Oseltamivir], the concentration giving a half-maximal response (EC50) was greater than 5 µM.
